Results: US8877741B2, “Pyrrolidine derivatives, pharmaceutical compositions and uses thereof” (Boehringer Ingelheim International GmbH, priority 2013, dated 2014)

Target: human ACC2 (Homo sapiens (Human), UniProt O00763)
Test: ACC2 assay, spectrophotometric 384 well assay (NADH-linked kinetic method)
Type: biochemical
Settings: human ACC2 construct lacking the 128 N-terminal amino acids; coupled lactate dehydrogenase/pyruvate kinase reaction, 340 nm, 25° C.
Procedure: Spectrophotometric 384 Well Assay
Malonyl CoA formation by acetyl CoA carboxylases is stoichometrically linked to the consumption of ATP. ACC2 activity is measured in a NADH-linked kinetic method measuring ADP generated during the ACC reaction using a coupled lactate dehydrogenase/pyruvate kinase reaction.
For biological testing, a human ACC2 construct which lacks the 128 amino acids at the N-terminus for increased solubility (nt 385-6966 in Genbank entry AJ575592) is cloned. The protein is then expressed in insect cells using a baculoviral expression system. Protein purification is performed by anion exchange.
All compounds are dissolved in dimethyl sulfoxide (DMSO) to a concentration of 10 mM.
The enzymatic reaction is then started by addition of a mixture of NADH, acetyl Coenzyme A (both 2000 μM f.c.) and ATP (500 uM f.c.). The decrease of the optical density (slope S) is then determined at 25° C. at a wavelength of 340 nm over 15 minutes in a spectrophotometric reader.
Each assay microtiter plate contains wells with vehicle instead of compound as controls for the non-inhibited enzyme (100% CTL; ‘HIGH’) and wells without acetyl-CoA as controls for non-specific NADH degradation (0% CTL; ‘LOW’).
The slope S is used for calculation of % CTL=(S(compound)−S(‘LOW’))/(S(‘HIGH’)−S(‘LOW’))*100.
For IC50 value determination, the sample slope in the presence of the test compound after subtraction of the low controls (S(compound)−S(‘LOW’)) are used.
An IC50 value is derived from the compound slopes at different dosages after subtraction of the low controls (S(compound)−S(‘LOW’)) by non-linear regression curve fitting (equation y=(A+((B−A)/(1+((C/x)^D))))).

Sequence of human ACC2 (O00763 129-2458): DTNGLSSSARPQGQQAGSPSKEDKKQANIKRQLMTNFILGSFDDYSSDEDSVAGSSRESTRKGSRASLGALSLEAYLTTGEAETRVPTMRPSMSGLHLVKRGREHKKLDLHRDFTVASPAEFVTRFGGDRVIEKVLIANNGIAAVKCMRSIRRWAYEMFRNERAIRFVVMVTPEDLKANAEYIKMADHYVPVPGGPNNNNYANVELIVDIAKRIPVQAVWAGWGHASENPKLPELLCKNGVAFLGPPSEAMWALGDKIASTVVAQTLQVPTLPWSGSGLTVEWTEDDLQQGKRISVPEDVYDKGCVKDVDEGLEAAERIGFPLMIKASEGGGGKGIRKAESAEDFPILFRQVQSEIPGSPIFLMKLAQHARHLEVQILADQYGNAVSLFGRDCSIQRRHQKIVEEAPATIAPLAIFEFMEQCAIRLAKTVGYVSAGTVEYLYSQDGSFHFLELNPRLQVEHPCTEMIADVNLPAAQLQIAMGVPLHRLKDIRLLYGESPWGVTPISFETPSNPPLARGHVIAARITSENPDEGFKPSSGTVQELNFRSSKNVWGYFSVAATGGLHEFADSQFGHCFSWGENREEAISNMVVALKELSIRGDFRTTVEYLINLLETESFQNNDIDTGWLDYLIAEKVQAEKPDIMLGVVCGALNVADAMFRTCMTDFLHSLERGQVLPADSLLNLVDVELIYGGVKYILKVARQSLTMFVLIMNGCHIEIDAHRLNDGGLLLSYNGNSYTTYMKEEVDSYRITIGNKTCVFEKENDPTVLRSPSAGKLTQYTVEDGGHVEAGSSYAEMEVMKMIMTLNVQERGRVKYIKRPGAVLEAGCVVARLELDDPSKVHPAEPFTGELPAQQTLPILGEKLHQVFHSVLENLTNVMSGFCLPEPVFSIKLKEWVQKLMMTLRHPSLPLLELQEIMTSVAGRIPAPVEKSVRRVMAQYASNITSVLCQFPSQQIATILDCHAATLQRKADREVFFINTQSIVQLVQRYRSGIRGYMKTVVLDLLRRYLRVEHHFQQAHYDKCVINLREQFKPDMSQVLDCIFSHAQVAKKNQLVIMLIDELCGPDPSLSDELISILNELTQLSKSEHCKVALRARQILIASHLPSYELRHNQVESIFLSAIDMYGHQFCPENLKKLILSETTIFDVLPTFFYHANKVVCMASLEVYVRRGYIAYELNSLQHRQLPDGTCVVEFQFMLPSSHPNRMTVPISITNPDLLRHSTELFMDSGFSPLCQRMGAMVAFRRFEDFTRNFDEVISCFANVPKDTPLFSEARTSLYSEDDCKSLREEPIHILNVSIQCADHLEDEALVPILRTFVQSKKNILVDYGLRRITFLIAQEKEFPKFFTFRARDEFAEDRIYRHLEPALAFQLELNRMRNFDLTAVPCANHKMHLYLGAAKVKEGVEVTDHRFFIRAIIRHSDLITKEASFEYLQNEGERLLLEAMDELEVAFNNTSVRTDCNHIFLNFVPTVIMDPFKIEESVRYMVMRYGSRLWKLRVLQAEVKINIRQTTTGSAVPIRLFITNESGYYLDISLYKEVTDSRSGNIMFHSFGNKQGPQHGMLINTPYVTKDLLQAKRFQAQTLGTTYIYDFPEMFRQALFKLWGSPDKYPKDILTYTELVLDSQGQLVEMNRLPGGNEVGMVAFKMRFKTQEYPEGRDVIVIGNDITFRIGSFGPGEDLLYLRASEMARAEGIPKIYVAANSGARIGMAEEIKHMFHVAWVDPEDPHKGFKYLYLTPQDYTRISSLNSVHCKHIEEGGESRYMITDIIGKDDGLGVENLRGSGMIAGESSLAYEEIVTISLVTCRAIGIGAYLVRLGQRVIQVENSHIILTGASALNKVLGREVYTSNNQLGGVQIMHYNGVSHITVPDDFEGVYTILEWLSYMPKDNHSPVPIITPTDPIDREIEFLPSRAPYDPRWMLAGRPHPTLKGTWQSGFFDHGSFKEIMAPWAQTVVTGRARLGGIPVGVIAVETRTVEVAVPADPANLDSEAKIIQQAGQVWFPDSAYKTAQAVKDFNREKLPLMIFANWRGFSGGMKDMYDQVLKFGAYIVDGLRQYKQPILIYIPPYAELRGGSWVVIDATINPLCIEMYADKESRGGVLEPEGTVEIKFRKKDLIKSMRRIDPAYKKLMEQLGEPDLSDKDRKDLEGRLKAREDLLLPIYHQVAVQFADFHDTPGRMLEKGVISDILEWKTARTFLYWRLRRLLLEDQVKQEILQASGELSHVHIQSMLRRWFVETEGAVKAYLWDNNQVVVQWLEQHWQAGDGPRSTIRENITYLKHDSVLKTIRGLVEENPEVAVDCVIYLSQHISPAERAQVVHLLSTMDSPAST

Row | Compound | IC50
1 | COc1c(N2CC[C@@H](Oc3ccc([C@H](C)NC(C)=O)cc3)C2)ccnc1N(C)C [Example 1.137] | 633 nM
2 | CC(=O)N[C@@H](C)c1ccc(O[C@@H]2CCN(c3ccnc(NCC4CC4)c3Cl)C2)cc1 [Example 1.138] | 26 nM
3 | COc1c(N2CC[C@@H](Oc3ccc([C@H](C)NC(C)=O)cc3)C2)ccnc1OCCC1CC1 [Example 1.139] | 37 nM
4 | CCC(=O)Nc1nc(C)c(C(=O)N[C@@H](C)c2ccc(O[C@@H]3CCN(c4ccnc(NCC5CC5)c4Cl)C3)cc2)s1 [Example 1.140] | 65 nM
5 | CCC(=O)Nc1nc(C)c(C(=O)N[C@@H](C)c2ccc(O[C@@H]3CCN(c4ccnc(NCC(F)F)c4F)C3)cc2)s1 [Example 1.141] | 421 nM
6 | CCC(=O)Nc1nc(C)c(C(=O)N[C@@H](C)c2ccc(O[C@@H]3CCN(c4ccnc(NCC5CC5)c4F)C3)cc2)s1 [Example 1.142] | 67 nM
7 | CCC(=O)Nc1nc(C)c(C(=O)N[C@@H](C)c2ccc(O[C@@H]3CCN(c4ccnc(NCC(F)F)c4Cl)C3)cc2)s1 [Example 1.143] | 116 nM
8 | CCC(=O)Nc1nc(C)c(C(=O)N[C@@H](C)c2ccc(O[C@@H]3CCN(c4ccc(OC[C@H]5CC5(F)F)cn4)C3)cc2)s1 [Example 1.144] | 93 nM
9 | CCC(=O)Nc1nc(C)c(C(=O)N[C@@H](C)c2ccc(O[C@@H]3CCN(c4ccc(OC[C@@H]5CC5(F)F)cn4)C3)cc2)s1 [Example 1.145] | 995 nM
10 | COc1c(N2CC[C@@H](Oc3ccc([C@H](C)NC(C)=O)cc3)C2)ccnc1N1CCC(F)(F)C1 [Example 1.146] | 109 nM
11 | CC(=O)N[C@@H](C)c1ccc(O[C@@H]2CCN(c3ccnc(N4CCCC4)c3Cl)C2)cc1 [Example 1.148] | 47 nM
12 | COc1c(N2CC[C@@H](Oc3ccc([C@H](C)NC(C)=O)cc3)C2)ccnc1OCC(C)(C)OC [Example 1.149] | 156 nM
13 | COc1c(N2CC[C@@H](Oc3ccc([C@H](C)NC(C)=O)cc3)C2)ccnc1OC(C)C [Example 1.150] | 69 nM
14 | COc1c(N2CC[C@@H](Oc3ccc([C@H](C)NC(C)=O)cc3)C2)ccnc1OCC(C)(C)O [Example 1.151] | 504 nM
15 | CC(=O)Nc1nc(C)c(C(=O)N[C@@H](C)c2ccc(O[C@@H]3CCN(c4ccc(OCC5CC5(F)F)cn4)C3)cc2)s1 (stereo partly drawn) [Example 2.1, 2-Acetamido-N—((1S)-1-(4-((3R)-1-(5-((2,2-difluorocyclopropyl)methoxy)pyridin-2-yl)pyrrolidin-3-yloxy)phenyl)ethyl)-4-methylthiazole-5-carboxamide] | 25 nM
16 | CNC(=O)c1cccc(C(=O)N[C@@H](C)c2ccc(OC3CCN(c4ccc(OCC5CC5)cc4)C3)cc2)n1 (stereo partly drawn) [Example 2.2] | 705 nM
17 | CC(C)Oc1cc(N2CCC(Oc3ccc([C@H](C)NC(=O)C4CC4)cc3)C2)ccn1 (stereo partly drawn) [Example 2.3] | 149 nM
18 | CC(C)Oc1cc(N2CCC(Oc3ccc([C@H](C)NC(=O)c4cnn(C)c4)cc3)C2)ccn1 (stereo partly drawn) [Example 2.4] | 145 nM
19 | Cc1nocc1C(=O)N[C@@H](C)c1ccc(OC2CCN(c3ccnc(OC(C)C)c3)C2)cc1 (stereo partly drawn) [Example 2.5] | 70 nM
20 | CC(C)Oc1cc(N2CCC(Oc3ccc([C@H](C)NC(=O)c4ccns4)cc3)C2)ccn1 (stereo partly drawn) [Example 2.6] | 145 nM
21 | CC(C)Oc1cc(N2CCC(Oc3ccc([C@H](C)NC(=O)CC#N)cc3)C2)ccn1 (stereo partly drawn) [Example 2.7] | 389 nM

Row | Compound | IC50
22 | CC(C)Oc1cc(N2CCC(Oc3ccc([C@H](C)NC(=O)c4cn[nH]c4)cc3)C2)ccn1 (stereo partly drawn) [Example 2.8] | 65 nM
23 | CC(C)Oc1cc(N2CCC(Oc3ccc([C@H](C)NC(=O)c4ccncc4)cc3)C2)ccn1 (stereo partly drawn) [Example 2.9] | 873 nM
24 | CC(C)Oc1cc(N2CCC(Oc3ccc([C@H](C)NC(=O)c4ccno4)cc3)C2)ccn1 (stereo partly drawn) [Example 2.10] | 670 nM
25 | CC(C)Oc1cc(N2CCC(Oc3ccc([C@H](C)NC(=O)CC(F)(F)F)cc3)C2)ccn1 (stereo partly drawn) [Example 2.11] | 1000 nM
26 | Cc1occc1C(=O)N[C@@H](C)c1ccc(OC2CCN(c3ccnc(OC(C)C)c3)C2)cc1 (stereo partly drawn) [Example 2.12] | 921 nM
27 | CC(C)Oc1cc(N2CCC(Oc3ccc([C@H](C)NC(=O)C(C)F)cc3)C2)ccn1 (stereo partly drawn) [Example 2.13] | 798 nM
28 | CC(C)Oc1cc(N2CCC(Oc3ccc([C@H](C)NC(=O)C4CCOC4)cc3)C2)ccn1 (stereo partly drawn) [Example 2.15] | 769 nM
29 | CC(C)Oc1cc(N2CCC(Oc3ccc([C@H](C)NC(=O)C4(C(F)(F)F)CC4)cc3)C2)ccn1 (stereo partly drawn) [Example 2.17] | 607 nM
30 | CC(C)Oc1cc(N2CCC(Oc3ccc([C@H](C)NC(=O)c4ccco4)cc3)C2)ccn1 (stereo partly drawn) [Example 2.18] | 862 nM
31 | CC(C)Oc1cc(N2CCC(Oc3ccc([C@H](C)NC(=O)C(F)F)cc3)C2)ccn1 (stereo partly drawn) [Example 2.19] | 250 nM
32 | CC(C)Oc1cc(N2CCC(Oc3ccc([C@H](C)NC(=O)c4ccoc4)cc3)C2)ccn1 (stereo partly drawn) [Example 2.20] | 110 nM
33 | CC(C)Oc1cc(N2CCC(Oc3ccc([C@H](C)NC(=O)C4(C)CC4)cc3)C2)ccn1 (stereo partly drawn) [Example 2.21] | 389 nM
34 | CC(=O)Nc1cncc(C(=O)N[C@@H](C)c2ccc(OC3CCN(c4ccnc(OC(C)C)c4)C3)cc2)c1 (stereo partly drawn) [Example 2.22] | 998 nM
35 | CC(C)Oc1cc(N2CCC(Oc3ccc([C@H](C)NC(=O)C(C)C#N)cc3)C2)ccn1 (stereo partly drawn) [Example 2.23] | 970 nM
36 | CC(C)Oc1cc(N2CCC(Oc3ccc([C@H](C)NC(=O)c4cncs4)cc3)C2)ccn1 (stereo partly drawn) [Example 2.24] | 199 nM
37 | CC(C)Oc1cc(N2CCC(Oc3ccc([C@H](C)NC(=O)C4CCC4)cc3)C2)ccn1 (stereo partly drawn) [Example 2.25] | 564 nM
38 | CC(=O)Nc1cc(C(=O)N[C@@H](C)c2ccc(OC3CCN(c4ccnc(OC(C)C)c4)C3)cc2)ccn1 (stereo partly drawn) [Example 2.26] | 466 nM
39 | CC(C)Oc1cc(N2CCC(Oc3ccc([C@H](C)NC(=O)C4(C#N)CC4)cc3)C2)ccn1 (stereo partly drawn) [Example 2.27] | 571 nM
40 | CC(C)Oc1cc(N2CCC(Oc3ccc([C@H](C)NC(=O)c4ccon4)cc3)C2)ccn1 (stereo partly drawn) [Example 2.28] | 512 nM
41 | CC(C)Oc1cc(N2CCC(Oc3ccc([C@H](C)NC(=O)C(C)(F)F)cc3)C2)ccn1 (stereo partly drawn) [Example 2.29] | 267 nM
42 | CCC(=O)N[C@@H](C)c1ccc(OC2CCN(c3ccnc(OC(C)C)c3)C2)cc1 (stereo partly drawn) [Example 2.30] | 455 nM

Row | Compound | IC50
43 | Cc1cc(CC(=O)N[C@@H](C)c2ccc(OC3CCN(c4ccnc(OC(C)C)c4)C3)cc2)on1 (stereo partly drawn) [Example 2.31] | 964 nM
44 | C[C@H](NC(=O)C(F)F)c1ccc(OC2CCN(c3cccc(C(F)(F)F)n3)C2)cc1 (stereo partly drawn) [Example 2.32] | 120 nM
45 | CCC(=O)N[C@@H](C)c1ccc(OC2CCN(c3ccc(OCC4CC4(F)F)cn3)C2)cc1 (stereo partly drawn) [Example 2.33] | 55 nM
46 | C[C@H](NC(=O)c1cn[nH]c1)c1ccc(OC2CCN(c3ccc(OCC4CC4(F)F)cn3)C2)cc1 (stereo partly drawn) [Example 2.34] | 69 nM
47 | C[C@H](NC(=O)C(C)(F)F)c1ccc(OC2CCN(c3ccc(OCC4CC4(F)F)cn3)C2)cc1 (stereo partly drawn) [Example 2.35] | 276 nM
48 | C[C@H](NC(=O)c1cnn(C)c1)c1ccc(OC2CCN(c3cccc(C(F)(F)F)n3)C2)cc1 (stereo partly drawn) [Example 2.36] | 130 nM
49 | C[C@H](NC(=O)C1(C(F)(F)F)CC1)c1ccc(OC2CCN(c3cccc(C(F)(F)F)n3)C2)cc1 (stereo partly drawn) [Example 2.37] | 247 nM
50 | CC(C)C(=O)N[C@@H](C)c1ccc(OC2CCN(c3cccc(C(F)(F)F)n3)C2)cc1 (stereo partly drawn) [Example 2.38] | 869 nM
51 | Cc1ncoc1C(=O)N[C@@H](C)c1ccc(OC2CCN(c3cccc(C(F)(F)F)n3)C2)cc1 (stereo partly drawn) [Example 2.39] | 610 nM
52 | C[C@H](NC(=O)C1(C)CC1)c1ccc(OC2CCN(c3cccc(C(F)(F)F)n3)C2)cc1 (stereo partly drawn) [Example 2.40] | 139 nM
53 | CCC(=O)N[C@@H](C)c1ccc(OC2CCN(c3cccc(C(F)(F)F)n3)C2)cc1 (stereo partly drawn) [Example 2.41] | 315 nM
54 | C[C@H](NC(=O)CCC#N)c1ccc(OC2CCN(c3cccc(C(F)(F)F)n3)C2)cc1 (stereo partly drawn) [Example 2.42] | 675 nM
55 | Cc1nocc1C(=O)N[C@@H](C)c1ccc(OC2CCN(c3cccc(C(F)(F)F)n3)C2)cc1 (stereo partly drawn) [Example 2.43] | 57 nM
56 | C[C@H](NC(=O)c1ccnc(F)c1)c1ccc(OC2CCN(c3cccc(C(F)(F)F)n3)C2)cc1 (stereo partly drawn) [Example 2.44] | 991 nM
57 | C[C@H](NC(=O)c1cnsc1)c1ccc(OC2CCN(c3cccc(C(F)(F)F)n3)C2)cc1 (stereo partly drawn) [Example 2.45] | 100 nM
58 | C[C@H](NC(=O)c1cncs1)c1ccc(OC2CCN(c3cccc(C(F)(F)F)n3)C2)cc1 (stereo partly drawn) [Example 2.46] | 60 nM
59 | C[C@H](NC(=O)C1CCC1)c1ccc(OC2CCN(c3cccc(C(F)(F)F)n3)C2)cc1 (stereo partly drawn) [Example 2.48] | 891 nM
60 | C[C@H](NC(=O)C1CC1)c1ccc(OC2CCN(c3cccc(C(F)(F)F)n3)C2)cc1 (stereo partly drawn) [Example 2.49] | 560 nM
61 | Cc1cncc(C(=O)N[C@@H](C)c2ccc(OC3CCN(c4cccc(C(F)(F)F)n4)C3)cc2)c1 (stereo partly drawn) [Example 2.50] | 895 nM
62 | C[C@H](NC(=O)c1ccon1)c1ccc(OC2CCN(c3cccc(C(F)(F)F)n3)C2)cc1 (stereo partly drawn) [Example 2.51] | 128 nM
63 | C[C@H](NC(=O)c1ccno1)c1ccc(OC2CCN(c3cccc(C(F)(F)F)n3)C2)cc1 (stereo partly drawn) [Example 2.52] | 275 nM
